# Measurements: US20120004235A1, “METHODS TO TREAT CANCER” (Rutgers, The State University of New Jersey, priority 2009, published 2012)
# Values joined by “and” are separate entries in the source; they are usually repeats but may differ in a detail not shown here. Identical values can stand only once.
# Columns and labels:
# [1] = system: NCI-H460 human non-small cell lung carcinoma xenograft; experiment: Compound 2 citrate salt vs. NCI-H460 xenograft model (pemetrexed, topotecan, cisplatin controls)
# [2] = system: Human H460 Non-Small Cell Lung Carcinoma Tumor Xenograft Model; experiment: Test D xenograft, Compound 2 free base; type: in vivo, nu/nu mice; settings: qod × 3
# Description: (§1) The anti-tumor activity of Compound 2 (free base) was evaluated against a variety of human tumor xenograft models. A summary of the studies, including tumor type, dosing and administration, growth inhibition, and major findings is presented below.
# [3] = system: Human LOX-IMVI Melanoma Tumor Xenograft Model; experiment: Test D xenograft, Compound 2 free base; settings: 90 mg/kg/day IP, qd × 5
# [4] = system: Human SK-MEL-3 Melanoma Tumor Xenograft Model; experiment: Test D xenograft, Compound 2 free base; type: in vivo, nu/nu mice; settings: 90 mg/kg/day IP, qd × 5
# Description: as §1
# [5] = system: Human H1299 Lung Tumor Xenograft Model; experiment: Test D xenograft, Compound 2 free base; settings: qod × 3
# [6] = system: NCI-H460 human non-small cell lung carcinoma xenograft; experiment: Compound 2 citrate salt vs. NCI-H460 xenograft model (docetaxel control); settings: 20 mg/kg/day IV
# [7] = system: Human NCI-H292 Lung Tumor Xenograft Model; experiment: Test D xenograft, Compound 2 free base; settings: qod × 3
# [8] = system: Human MDA-MB-231 Breast Tumor Xenograft Model; experiment: Test D xenograft, Compound 2 free base; settings: qod × 3
compound,measurement,setting,value
N.N.[Cl][Pt][Cl] [Cisplatin],antitumor activity,"[1]; 0.75 and 1.5 mg/kg/day IP, qd×5",only active at the high dose
same,antitumor activity (TGI and TGD evaluation points),"[1]; high dose (1.5 mg/kg/day IP, qd×5)",low activity at both evaluation points
same,Increase in Life Span (ILS),[2]; 3.3 mg/kg/day IP,1.4x
same,Tumor Growth Delay T-C,[2]; 3.3 mg/kg/day IP,11 days
same,Tumor Growth Inhibition T/C (tumor volume),[2]; 3.3 mg/kg/day IP,44.5%
"CN(C)/N=N/c1[nH]cnc1C(N)=O [Dacarbazine, reference compound]",Increase in Life Span (ILS),[3],2.0x
same,Tumor Growth Delay T-C,[3],28 days and 14 days
same,Tumor Growth Inhibition T/C (tumor volume),[3],80.6%
same,Increase in Life Span (ILS),[4],1.0x
same,Tumor Growth Delay T-C,[4],0 days
same,Tumor Growth Inhibition T/C (tumor volume),[4],88.5%
"CC(=O)O[C@@]12CO[C@@H]1C[C@H](O)[C@@]1(C)C(=O)[C@H](O)C3=C(C)[C@@H](OC(=O)[C@H](O)[C@@H](NC(=O)OC(C)(C)C)c4ccccc4)C[C@@](O)([C@@H](OC(=O)c4ccccc4)[C@H]21)C3(C)C [Docetaxel, reference compound]",Increase in Life Span (ILS),[2]; 12 mg/kg/day IV,1.4x
same,Tumor Growth Delay T-C,[2]; 12 mg/kg/day IV,11 days
same,Tumor Growth Inhibition T/C (tumor volume),[2]; 12 mg/kg/day IV,49.8%
same,Increase in Life Span (ILS),[5]; 16 mg/kg/day IV,1.4x
same,Tumor Growth Delay T-C,[5]; 16 mg/kg/day IV,11 days
same,Tumor Growth Inhibition T/C (tumor volume),[5]; 16 mg/kg/day IV,35.2%
same,Increase in Life Span (ILS),[5]; 20 mg/kg/day IV,1.6x
same,Tumor Growth Delay T-C,[5]; 20 mg/kg/day IV,17 days
same,Tumor Growth Inhibition T/C (tumor volume),[5]; 20 mg/kg/day IV,20.7%
same,TGD (T-C),[6]; qod × 3,21 days
same,TGI (T/C),[6]; qod × 3,22.7%
same,time to recover the weight loss,[6]; qod × 3,≤ 13 days
same,toxic deaths,[6]; qod × 3,no toxic deaths
same,maximum weight loss,"[6]; qod×3, on Day 25",26.4%
same,Increase in Life Span (ILS),[7]; 16 mg/kg/day IV,2.1x
same,Tumor Growth Delay T-C,[7]; 16 mg/kg/day IV,39 days
same,Tumor Growth Inhibition T/C (tumor volume),[7]; 16 mg/kg/day IV,8.7%
same,Increase in Life Span (ILS),[7]; 20 mg/kg/day IV,2.1x
same,Tumor Growth Delay T-C,[7]; 20 mg/kg/day IV,39 days
same,Tumor Growth Inhibition T/C (tumor volume),[7]; 20 mg/kg/day IV,6.0%
same,Increase in Life Span (ILS),[8]; 16 mg/kg/day IV,>2.3x
same,Tumor Growth Delay T-C,[8]; 16 mg/kg/day IV,>47 days
same,Tumor Growth Inhibition T/C (tumor volume),[8]; 16 mg/kg/day IV,4.8%
same,Increase in Life Span (ILS),[8]; 20 mg/kg/day IV,>2.3x
same,Tumor Growth Delay T-C,[8]; 20 mg/kg/day IV,>47 days
same,Tumor Growth Inhibition T/C (tumor volume),[8]; 20 mg/kg/day IV,4.0%
